We go through 3 compounds from PMC11550483 (2024).

Molecules are shown by their SMILES. Read-outs that look alike come from different tables or passages of the source. Where a SMILES comes first, the peptide text is derived from it.

For data set [1], the target named is HCoV-NL63 M^pro (Human coronavirus NL63, UniProt P0C6X5). Type of data set: cell-based. Particulars: read-out: EC50 NL63 M^pro inhibition, cellular gain-of-signal.
The test system of data set [2] is SARS2 replication. Particulars: read-out: EC50 against SARS2 replication; cited from earlier work.
Data set [3] relates to SARS2 M^pro. Particulars: cited from earlier work.
Data set [4] relates to 293T cells. Particulars: up to the highest tested concentration (100 μM).

Chain of HCoV-NL63 M^pro (P0C6X5 2940-3242): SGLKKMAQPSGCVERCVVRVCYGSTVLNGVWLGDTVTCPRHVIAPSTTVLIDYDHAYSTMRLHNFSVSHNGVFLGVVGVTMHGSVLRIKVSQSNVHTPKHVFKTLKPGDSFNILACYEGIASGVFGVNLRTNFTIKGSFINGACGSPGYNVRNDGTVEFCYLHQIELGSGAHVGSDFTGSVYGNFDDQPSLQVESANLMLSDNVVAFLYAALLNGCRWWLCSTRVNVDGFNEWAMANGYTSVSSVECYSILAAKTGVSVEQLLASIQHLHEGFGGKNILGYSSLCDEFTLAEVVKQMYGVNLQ

As to `CC(C)C[C@H](NC(=O)OCc1ccccc1)C(=O)N[C@@H](CC1CCNC1=O)C(O)S(=O)(=O)O` (some centres unmarked) [GC376], the EC50 (in general, the concentration giving half of the maximal effect) in data set [1] is 770 nM. Regarding `O=C(NCc1cccs1)C1CN(C(=O)c2cccnc2)CCN1c1ccc(Cl)c(Cl)c1` (centres unmarked) [GC-14, reference compound], the EC50 in data set [2] is 1100 nM. Also, the IC50 – broadly, the concentration that gives 50% inhibition – in data set [3] (read-out: IC50 in a similar biochemical assay, ref [60]–[61]) was 400 nM.

For `CSCCC(C=O)NC(=O)C(CC(C)C)NC(=O)C(CC(C)C)NC(C)=O` (stereo not drawn) [MWAC-0001889, CSCCC(NC(=O)C(CC(C)C)NC(=O)C(CC(C)C)NC(=O)C)C=O] (Ac-Leu-Leu-Met-aldehyde; configuration not given here), the “toxicity in 293T cells” value in data set [4] is “no toxicity”. In addition, in data set [3] (read-out: IC50 SARS2 M^pro in a biochemical assay, ref [29],[32],[39],[58],[59]), the concentration for half-maximal inhibition (IC50) was 970 nM.
